Data reported in patent US10287530B2, “Surfactants based on monounsaturated fatty alcohol derivatives” (priority 2013, dated 2019).
Where “and” joins values, the source holds several entries; their conditions need not be identical. Equal entries are not always repeated. Where two headings read alike, the source gives them in different places.

Columns and labels:
[1] = Interfacial tension (IFT) against light mineral oil, synergy study with cationic surfactant; format: physicochemical; settings: for IFT at 0.1% actives/mineral oil (blend): 1:1 molar blend of the anionic with Ammonyx Cetac 30, 0.1% actives, light mineral oil; for Calculated IFT (no synergy): expected IFT of the 1:1 molar blend with Ammonyx Cetac 30 by ideal mixing; for Synergy?: measured versus expected IFT of the 1:1 molar blend with Ammonyx Cetac 30; for IFT at 0.1% actives (single component): 0.1 wt. % active against light mineral oil, ambient temperature
Method: (§1) The surfactant blends tested are prepared at a 1:1 molar ratio without any pH adjustment. Dilutions are made using deionized water to the desired actives level. Actives amounts are wt. % unless indicated otherwise. Appearances are reported at ambient temperature for samples prepared within the last 24 h.
Interfacial tension (IFT) of all the individual components and their blends is measured at 0.1 wt. % active against light mineral oil at ambient temperature using a Kruss DSA-20 pendent drop tensiometer. The drop is blown out at 600 μL/min., and a video is recorded for 100 s. The video frames taken during the last 15 s are analyzed and used for the IFT calculation.
For blends having an IFT less than 0.5 mN/m, the IFT is determined using a spinning drop tensiometer (University of Texas 500) at 25° C. Oil density=0.877 g/cm^3 and surfactant density=0.997 g/cm^3 are used for the IFT calculation.
The expected IFT for a blend is calculated based on ideal mixing (non-synergistic) using the active component in each blend. The equation used is given as: Expected IFT=X*IFTa+(1−X)*IFTb where X is the actives % of component A, IFTa is the IFT of component A, and IFTb is the IFT of component B. If the measured IFT for a blend is less than the expected IFT, then the blend is synergistic. If the measured IFT for a blend is higher than the expected IFT, the system is antagonistic.

[2] = format: physicochemical; settings: for Rating: overall, versus control
Method: Surfactant candidates for water soluble herbicide applications are examined as a replacement for the anionic, nonionic, or anionic/nonionic blend portion and compared to a known industry adjuvant standard for use in paraquat, a water soluble herbicide concentrate formulation. A standard dilution test is conducted whereby the concentrates are diluted in water to determine if solubility is complete.
A known industry paraquat adjuvant (2.8 g) is added and vigorously mixed for 30 s. Deionized water (8.07 g) is added, and mixing resumes for 30 s. […] The cylinder is stoppered and inverted ten times. Solubility is recorded as complete or incomplete. Cylinders are allowed to stand and the amount (in mL) and type of separation are recorded after 30 min., 1 h, 2 h, and 24 h. Results of the solubility testing appear in Table 4 below.
An eight to ten mole alkyl phenol ethoxylate surfactant (0.7 g) is added and vigorously mixed for 30 s. Test sample (0.7 g) is added and mixing resumes for 30 s. Deionized water (4.03 g) is added, and mixing resumes for 30 s.
Test sample (0.7 g) is added and vigorously mixed for 30 s. Sodium linear alkylbenzene sulfonate (“NaLAS,” 0.7 g) is added and mixing resumes for 30 s. Deionized water (4.03 g) is added, and mixing resumes for 30 s.
Test sample (1.4 g) is added and vigorously mixed for 30 s. Deionized water (4.03 g) is added, and mixing resumes for 30 s.

[3] = Surfactant phase behavior study by cross-polarized microscopy; format: physicochemical; settings: in deionized water, room temperature (20-22° C.); boundaries are estimates (±5%)
Method: Phase behavior is observed using an Olympus BH-2 cross-polarized microscope at 100-400× and room temperature (20° C. to 22° C.). The monounsaturated C11 alcohol derivatives (sulfates, ethoxylate sulfates, and alcohol ethoxylates) are compared with their saturated analogs. Samples are prepared by diluting the most concentrated product gradually with deionized water. When the surfactant concentration approaches a phase transition, the concentration is varied at 2-4% intervals to estimate the phase boundary. The actives level reported in Table 6 for each phase boundary is within ±5% of the true boundary. Samples are loaded between a microscope slide and cover glass and are allowed to equilibrate before observation. Microscopic texture is analyzed and used to determine the phase. For some samples, an AR 2000 rheometer (TA Instruments) is used to measure viscosity at 25° C. to further verify phase behavior.

[4] = Appearance and solubility of surfactants and of 1:1 molar blends with cationic surfactant; format: physicochemical; settings: for Appearance, 0.1%: 1:1 molar blend of the anionic with Ammonyx Cetac 30, 0.1% actives; for Appearance, 0.1% / Appearance, 1.0%: ambient temperature; for Appearance, 1.0%: 1:1 molar blend of the anionic with Ammonyx Cetac 30, 1.0% actives
Method: as §1

[5] = test system: zein, yellow corn (maize) protein
Method: The zein test is based on solubilization by surfactants of a yellow corn (maize) protein that is normally insoluble in water unless it is denatured. The test gravimetrically determines the amount of zein dissolved by a surfactant solution. The solubility of zein in surfactant solutions correlates well with skin irritation or roughness caused by the surfactant. […] A higher zein number corresponds to a greater degree of irritation.
A 1% actives solution of each test surfactant (120 mL) is prepared. The pH of each solution is adjusted to about 7.0 with dilute aq. sulfuric acid or dilute aq. sodium hydroxide. The surfactant solution is warmed to 45° C. Zein powder (1.50 g) is added to each of three jars. Surfactant (25.0 g of 1% actives solution) is added to each jar, and to one empty jar to be used as a blank. The solutions are mixed using magnetic stirring on a temperature-controlled hotplate at 45° C. for 60 min. Each mixture is then centrifuged (2500 rpm, 15 min.), and undissolved zein powder is isolated by vacuum filtration. The residue is washed with deionized water and dried (55° C., 24 h) to constant weight. The amount of undissolved zein protein is found gravimetrically, and the results from three runs are averaged to give the % of solubilized zein and zein number.

[6] = Anionic test sample, 342 ppm water
[7] = Nonionic test sample, 342 ppm water
[8] = Adjuvant (anionic/nonionic) test sample, 342 ppm water
[9] = corn (maize), 60 min, 1 % actives, pH 7
[10] = 1% actives solution, pH about 7.0, 45° C., 60 min, average of three runs
[11] = relative to 1% actives Stepanol WA-Extra PCK (SLS) control = 100, higher = more irritating, average of three runs

Compound	IFT at 0.1% actives/mineral oil (blend) [1]	Calculated IFT (no synergy) [1]	Synergy? [1]	IFT at 0.1% actives (single component) [1]	Emulsion stability, mL separation, 1 h [2, 6]	Emulsion stability, mL separation, 24 h [2, 7]	Rating [2]	Estimated Phase Region as a Function of % Actives Level: Hexagonal [3]	Estimated Phase Region as a Function of % Actives Level: Isotropic Clear [3]	Estimated Phase Region as a Function of % Actives Level: Lamellar [3]	Estimated Phase Region as a Function of % Actives Level: Solid/gum/paste [3]	Solubility [4]	Appearance, 1.0% [4]	Emulsion stability, mL separation, 1 h [2, 8]	Emulsion stability, mL separation, 24 h [2, 6]	Emulsion stability, mL separation, 1 h [2, 7]	Emulsion stability, mL separation, 24 h [2, 8]	other results
1-Undecanol, 1EO Ether Sulfate, Ammonium Salt [Sat. 1EO NH4 sulfate]	0.85 mN/m	6.2 mN/m	high	12.40 mN/m	0 mL	0 mL	good	26-58 % actives	0-26 % actives	67-85 % actives	85-100 % actives	–	–	–	–	–	–	Estimated Phase Region as a Function of % Actives Level: Cubic [3]: 58-67 % actives
1-Undecanol, 3EO Ether Sulfate, Sodium Salt [Sat. C11 alcohol 3EO Na sulfate]	0.03 mN/m	4.58 mN/m	very high	8.80 mN/m	0 mL	0.5 mL	good	33-58 % actives	0-33 % actives	58-82 % actives	82-100 % actives	fair-poor	separated	0 mL	0 mL	0.1 mL	–	Appearance, 0.1% [4]: hazy liquid; % solubilized zein [5]: 22.3%; zein number [5]: 44.9
CCCCCCCCCCCCCCCC[N+](C)(C)C.[Cl-] [Ammonyx ® Cetac 30 (cetrimonium CI), cetrimonium CI]	–	–	–	0.35 mN/m and 0.38 mN/m	–	–	–	–	–	–	–	–	–	–	–	–	–	–
CCCCCCCCCCCOS(=O)(=O)[O-].[Na+] [Sat. C11 alcohol Na sulfate, 1-Undecanol Sulfate, Sodium Salt]	2.67 mN/m	8.35 mN/m	above average	16.34 mN/m	0 mL	0.3 mL	good	33-43 % actives	0-33 % actives	–	43-100 % actives	–	separated	0.2 mL	0 mL	0.2 mL	0.4 mL	Solubility ([4]; 1:1 molar blend of the anionic with Ammonyx Cetac 30): poor; Appearance, 0.1% [4]: separated; sol (solubility) [2, 8]: I; sol (solubility) ([2]; Anionic test sample: replaces anionic portion, paraquat concentrate in 342 ppm water, 30° C.): S; sol (solubility) ([2]; Nonionic test sample: replaces nonionic portion (with NaLAS), 342 ppm water): I; % solubilized zein [5, 9]: 52.9%; zein number [5, 9]: 107
Undecylenic Alcohol Sulfate, Sodium Salt [Unsat. C11 alcohol Na sulfate]	0.17 mN/m	3.16 mN/m	–	5.95 mN/m	0 mL	0.4 mL	good	–	0-68 % actives	–	68-100 % actives	good	–	0 mL	0 mL	0.25 mL	0.25 mL	Synergy? ([1]; listed as Unsat C11 Na sulfate, Sulfate, Sodium Salt): very high; Synergy? ([1]; listed as unsaturated C11 alcohol sulfate, sodium salt, Sulfate, Sodium Salt): very high synergy; % solubilized zein [5, 10]: 9.6%; zein number [5, 11]: 19.3
Undecylenic Alcohol, 1EO Ether Sulfate, Ammonium Salt [Unsat. 1EO NH4 sulfate]	0.60 mN/m	8.8 mN/m	very high	17.22 mN/m	–	–	good	31-58 % actives	0-31 % actives	58-91 % actives	91-100 % actives	–	–	0 mL	0 mL	0 mL	0 mL	–
Undecylenic Alcohol, 3EO Ether Sulfate, Sodium Salt [Unsat. C11 alcohol 3EO Na sulfate]	0.17 mN/m	2.73 mN/m	high	5.10 mN/m	0 mL	0.5 mL	good	–	0-70 % actives	–	80-100 % actives	good	hazy liquid	0 mL	0 mL	0.2 mL	–	Estimated Phase Region as a Function of % Actives Level: Solid/isotropic [3]: 70-80 % actives; % solubilized zein [5, 10]: 16.5%; zein number [5, 11]: 31.6
